For seven molecules, inhibition and IC50 results are on record in ChEMBL document CHEMBL3861995 (Bioorg Med Chem, 2016).

In assay [1] the target is T1, Protein kinase C (PKC) (Homo sapiens) (UniProt O94806+P41743+P17252+P05129+Q05655+P05771+Q05513+Q02156+P24723+Q15139+Q04759). As to the kind of experiment: Inhibition of PKC in human SH-SY5Y cells assessed as inhibition of PMA-stimulated MARCKS phosphorylation at 3 uM preincubated for 1 hr followed by PMA-stimulation for 15 mins by Western blot analysis relative to control. The format is cell-based. A general note: In western blotting, separated proteins are transferred to a membrane and probed.

The target in assay [2] is T1, Protein kinase C (PKC) (Homo sapiens). Kind of assay: Inhibition of PKC in human SH-SY5Y cells assessed as inhibition of PMA-stimulated MARCKS phosphorylation at 10 uM preincubated for 1 hr followed by PMA-stimulation for 15 mins by Western blot analysis relative to control. The format is cell-based.
A further assay has as its target T2, Estrogen receptor (Homo sapiens, UniProt P03372).
T2 sequence (P03372 whole entry): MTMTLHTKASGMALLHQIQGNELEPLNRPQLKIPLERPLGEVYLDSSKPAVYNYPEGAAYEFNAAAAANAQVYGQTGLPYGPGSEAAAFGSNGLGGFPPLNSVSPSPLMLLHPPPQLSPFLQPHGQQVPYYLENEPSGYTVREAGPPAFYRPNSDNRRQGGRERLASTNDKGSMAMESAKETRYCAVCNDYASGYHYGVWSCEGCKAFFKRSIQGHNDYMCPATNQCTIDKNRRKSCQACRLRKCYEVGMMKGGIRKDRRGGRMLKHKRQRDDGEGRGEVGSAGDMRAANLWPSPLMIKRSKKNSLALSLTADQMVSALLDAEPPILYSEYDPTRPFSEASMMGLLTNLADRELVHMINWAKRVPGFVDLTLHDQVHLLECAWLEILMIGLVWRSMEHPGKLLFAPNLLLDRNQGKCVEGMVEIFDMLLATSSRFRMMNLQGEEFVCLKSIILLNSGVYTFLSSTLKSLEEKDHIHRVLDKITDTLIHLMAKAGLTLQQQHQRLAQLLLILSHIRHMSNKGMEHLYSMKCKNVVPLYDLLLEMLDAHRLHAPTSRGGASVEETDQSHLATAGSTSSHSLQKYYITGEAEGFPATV
Kind of assay: biochemical.

Description for Estrogen receptor: Displacement of Fluormone ES2 Green from human recombinant full length ERalpha expressed in insect cells measured up to 4 hrs by fluorescence polarization assay

Turning to `N#C/C(=C(/c1ccccc1)c1ccc(OCCN2CCOCC2)cc1)c1ccccc1`, the inhibition in assay [1] was found to be 37%; in assay [2], 70%.
Take `CCN(CC)CCOc1ccc(C(=C(C#N)c2ccccc2)c2ccc(OCCN(CC)CC)cc2)cc1`: the inhibition was 12% in assay [1] and 68% in assay [2]. The half-inhibitory concentration (IC50) against Estrogen receptor is more than 10 µM.
On the same counts, the results for `N#CC(=C(c1ccc(OCCN2CCOCC2)cc1)c1ccc(OCCN2CCOCC2)cc1)c1ccccc1` are 62%, 72% and 0.553 µM.
On the same counts, the results for `CN1CCN(CCOc2ccc(C(=C(C#N)c3ccccc3)c3ccc(OCCN4CCN(C)CC4)cc3)cc2)CC1` are 83%, 78% and more than 10 µM.
The corresponding values for `CN(C)CCOc1ccc(C(=C(C#N)c2cccs2)c2ccc(OCCN(C)C)cc2)cc1` are 39%, 68% and more than 10 µM.
Regarding `CN(C)CCOc1ccc(C(=C(C#N)c2ccccc2)c2ccccc2)cc1`, the inhibition amounted to 22% in assay [1] and 67% in assay [2].
On the same counts, the results for `N#C/C(=C(\c1ccccc1)c1ccc(OCCN2CCOCC2)cc1)c1ccccc1` are 43% and 57%.

In general, inhibition refers to the percentage by which the read-out fell short of the control. Usually IC50 stands for the midpoint of a concentration-inhibition curve.
